Molecules are shown by their SMILES.

In the assay the test system is Calf thymus DNA. Nature of the assay: Binding affinity to calf thymus duplex-form DNA assessed as melting temperature at 1:5 compound/DNA ratio after 18 hrs. In kind it is nucleic-acid assay. The conditions noted are these: Bos taurus.
Take `COc1cc(-c2nc3ccccc3o2)ccc1OCCCCCOc1cc2c(cc1OC)C(=O)N1CCC[C@H]1C=N2`: the ΔTm stood at 4.2 °C.

For `COc1cc2c(cc1OCCCCC(=O)Nc1ccc(-c3nc4ccc(F)cc4s3)cc1)N=C[C@@H]1CCCN1C2=O`, the ΔTm amounted to 2.3 °C.

Regarding `COc1cc2c(cc1OCCCCCOc1ccc(-c3nc4ccccc4o3)cc1)N=C[C@@H]1CCCN1C2=O`, the ΔTm was determined as 4.3 °C.

The values are drawn from ChEMBL document CHEMBL1177643, “Synthesis, DNA-binding ability and anticancer activity of benzothiazole/benzoxazole-pyrrolo[2,1-c][1,4]benzodiazepine conjugates” (Bioorg Med Chem, 2010).
